The subject of this assay is S. aureus. The assay can be described thus: Minimum inhibitory concentrations (MICs) for S. aureus of exemplary compounds (Table 2). It is filed as cell-based. The settings on record: Staphylococcus aureus, minimum inhibitory concentrations for S. aureus; read-out: MICs. The source says: Exemplary compounds in accordance with the invention are listed in Table 2 with their minimum inhibitory concentrations (MICs) (μg/mL) for S. aureus:
Furthermore, the antibiotic compounds can be assayed for anti-proliferative or anti-infective properties on a cellular level. For example, where the target organism is a microorganism, the activity of compounds of interest can be assayed by growing the microorganisms of interest in media either containing or lacking the compound. Growth inhibition can be indicative that the molecule could be acting as a protein synthesis inhibitor. […] For this purpose, a panel of bacterial strains can be assembled to include a variety of target pathogenic species, some containing resistance mechanisms that have been characterized. Use of such a panel of organisms permits the determination of structure-activity relationships not only in regards to potency and spectrum, but also with a view to obviating resistance mechanisms. The assays can be performed in microtiter trays according to conventional methodologies as published by The National Committee for Clinical Laboratory Standards (NCCLS) guidelines (NCCLS. M7-A5-Methods for Dilution Antimicrobial Susceptibility Tests for Bacteria That Grow Aerobically; Approved Standard-Fifth Edition. NCCLS Document M100-S12/M7 (ISBN 1-56238-394-9)).
Regarding `CC(=O)NC[C@H]1CN(c2ccc(-c3ccc(CN4CCC(C(N)=O)C4)cc3)c(F)c2)C(=O)O1` (mixture of isomers) [Compound 1093, 1-{4′-[5-(S)-(Acetylamino-methyl)-2-oxo-oxazolidin-3-yl]-2′-fluoro-biphenyl-4-ylmethyl}-pyrrolidine-3-(R/S)-carboxylic acid amide], the MIC turned out to be 2 µg/mL. `CC(=O)NC[C@H]1CN(c2ccc(-c3ccc(CN4CCCC(F)C4)cc3)c(F)c2)C(=O)O1` (mixture of isomers) [Compound 1096, N-{3-[2-Fluoro-4′-(3-(R/S)-fluoro-piperidin-1-ylmethyl)-biphenyl-4-yl]-2-oxo-oxazolidin-5-(S)-ylmethyl}-acetamide]: the MIC turned out to be 1 µg/mL. As for `CC(=O)NC[C@H]1CN(c2ccc(-c3ccc(C(C)NCc4ccoc4)cc3)c(F)c2)C(=O)O1` (mixture of isomers) [Compound 4144, N-[3-(2-Fluoro-4′-{1-(R/S)-[(furan-3-ylmethyl)-amino]-ethyl}-biphenyl-4-yl)-2-oxo-oxazolidin-5-(S)-ylmethyl]-acetamide], the figure is 4 µg/mL; as for `CC(=O)NC[C@H]1CN(c2ccc(-c3ccc(C(C)NCc4nccs4)cc3)c(F)c2)C(=O)O1` (mixture of isomers) [Compound 4145, N-[3-(2-Fluoro-4′-{1-(R/S)-[(thiazol-2-ylmethyl)-amino]-ethyl}-biphenyl-4-yl)-2-oxo-oxazolidin-5-(S)-ylmethyl]-acetamide], 2 µg/mL; as for `CC(=O)NC[C@H]1CN(c2ccc(-c3ccc(CNCCC4CCCN4C)cc3)c(F)c2)C(=O)O1` (mixture of isomers) [Compound 4150, N-[3-(2-Fluoro-4′-{[2-(R/S)-(1-methyl-pyrrolidin-2-yl)-ethylamino]-methyl}-biphenyl-4-yl)-2-oxo-oxazolidin-5-(S)-ylmethyl]-acetamide], 16 µg/mL. The result for `CC(=O)NC[C@H]1CN(c2ccc(-c3ccc(CNCC4CCNC4)cc3)c(F)c2)C(=O)O1` (mixture of isomers) [Compound 4153, N-[3-(2-Fluoro-4′-{[(pyrrolidin-3-(R/S)-ylmethyl)-amino]-methyl}-biphenyl-4-yl)-2-oxo-oxazolidin-5-(S)-ylmethyl]-acetamide] reads 4 µg/mL. The result for `CC(=O)NC[C@H]1CN(c2ccc(-c3ccc(C(C)NCc4ccncc4)cc3)c(F)c2)C(=O)O1` (mixture of isomers) [Compound 4232, N-[3-(2-Fluoro-4′-{1-(R/S)-[(pyridin-4-ylmethyl)-amino]-ethyl}-biphenyl-4-yl)-2-oxo-oxazolidin-5-(S)-ylmethyl]-acetamide] reads 8 µg/mL; that for `CC(=O)NC[C@H]1CN(c2ccc(-c3ccc(CNCC(O)c4ccc(F)cc4)cc3)c(F)c2)C(=O)O1` (mixture of isomers) [Compound 4275, N-[3-(2-Fluoro-4′-{[2-(4-fluoro-phenyl)-2-(R/S)-hydroxy-ethylamino]-methyl}-biphenyl-4-yl)-2-oxo-oxazolidin-5-(S)-ylmethyl]-acetamide], 0.5 µg/mL. As for `CC(=O)NC[C@H]1CN(c2ccc(-c3ccc(CNC(C)c4cnn[nH]4)cc3)c(F)c2)C(=O)O1` (mixture of isomers) [Compound 4278, N-[3-(2-Fluoro-4′-{[1-(R/S)-(3H-[1,2,3]triazol-4-yl)-ethylamino]-methyl}-biphenyl-4-yl)-2-oxo-oxazolidin-5-(S)-ylmethyl]-acetamide], the MIC was found to be 2 µg/mL. The result for `CC(=O)NC[C@H]1CN(c2ccc(-c3ccc(CNCC4CCCN4)cc3)c(F)c2)C(=O)O1` (mixture of isomers) [Compound 4279, N-[3-(2-Fluoro-4′-{[(pyrrolidin-2-(R/S)-ylmethyl)-amino]-methyl}-biphenyl-4-yl)-2-oxo-oxazolidin-5-(S)-ylmethyl]-acetamide] reads 4 µg/mL.

(Values after patent US10471046B2, “Method for treating, preventing, or reducing the risk of skin infection” (Melinta Subsidiary Corp., priority 2014, dated 2019).)
